What all share (type): biochemical
The target of one experiment is JAK3 (Homo sapiens (Human), UniProt P52333). Put plainly: In vitro JAK kinase assay (TR-FRET), JAK3. The settings on record: catalytic domain aa 795-1124, GST-fusion; ATP 0.6 μM; peptide 140 nM; 30 minutes at room temperature. The procedure, abridged: (§1)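 Each human JAK enzyme assayed on biotinylated poly(GT) peptide substrate, reaction 30 min at room temperature. Phosphorylation detected by TR-FRET after a 3 h detection incubation.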

The next experiment concerns the target JAK2 (Homo sapiens (Human), UniProt O60674). Put plainly: In vitro JAK kinase assay (TR-FRET), JAK2. The conditions noted are these: catalytic domain aa 826-1132, GST-fusion; ATP 0.2 μM; peptide 20 nM; 30 minutes at room temperature. The procedure, abridged: as §1
A further experiment deals with JAK1 (Homo sapiens (Human), UniProt P23458). The experiment is described as follows: In vitro JAK kinase assay (TR-FRET), JAK1. The conditions noted are these: catalytic domain aa 850-1154, GST-fusion; ATP 3 μM; peptide 60 nM; 30 minutes at room temperature. The essentials: as §1
(In general: In TR-FRET formats the signal depends on donor and acceptor labels being close together.)

Usually IC50 stands for the concentration needed to halve the response being measured. A low value points to greater potency in that assay.

JAK3, sequence (P52333 795-1124): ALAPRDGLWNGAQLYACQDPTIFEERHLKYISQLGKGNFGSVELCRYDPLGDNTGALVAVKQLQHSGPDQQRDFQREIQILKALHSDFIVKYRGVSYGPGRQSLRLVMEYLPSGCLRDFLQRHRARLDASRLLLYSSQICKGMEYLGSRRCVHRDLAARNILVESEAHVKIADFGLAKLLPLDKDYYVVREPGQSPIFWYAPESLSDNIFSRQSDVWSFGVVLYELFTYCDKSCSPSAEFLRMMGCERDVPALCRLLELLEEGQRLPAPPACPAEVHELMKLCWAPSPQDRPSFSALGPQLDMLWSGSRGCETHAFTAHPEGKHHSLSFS
JAK1, sequence (P23458 850-1154): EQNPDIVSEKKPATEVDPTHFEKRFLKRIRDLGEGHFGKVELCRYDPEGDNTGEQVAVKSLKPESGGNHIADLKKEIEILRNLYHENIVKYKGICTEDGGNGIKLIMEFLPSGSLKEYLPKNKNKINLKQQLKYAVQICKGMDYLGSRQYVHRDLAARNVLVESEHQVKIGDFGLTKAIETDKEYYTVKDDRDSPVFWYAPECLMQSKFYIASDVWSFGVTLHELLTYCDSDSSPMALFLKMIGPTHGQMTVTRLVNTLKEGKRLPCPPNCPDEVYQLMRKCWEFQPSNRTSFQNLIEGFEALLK
JAK2, sequence (O60674 826-1132): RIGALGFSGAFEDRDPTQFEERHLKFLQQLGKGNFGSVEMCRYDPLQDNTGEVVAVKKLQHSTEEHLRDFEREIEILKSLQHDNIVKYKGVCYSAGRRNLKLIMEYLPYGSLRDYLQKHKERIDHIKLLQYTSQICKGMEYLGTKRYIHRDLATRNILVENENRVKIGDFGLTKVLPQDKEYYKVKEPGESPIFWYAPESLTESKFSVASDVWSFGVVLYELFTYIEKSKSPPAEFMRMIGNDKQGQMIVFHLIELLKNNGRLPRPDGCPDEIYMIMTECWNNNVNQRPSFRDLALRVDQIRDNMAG

With `N#CC[C@H]1CC[C@H](Nc2nc(-c3cnn4ccccc34)nc(OC[C@H](O)CO)c2F)CC1` [Example 7, {Trans-4-[(6-{[(2R)-2,3-dihydroxypropyl]oxy}-5-fluoro-2-pyrazolo[1,5-a]pyridin-3-ylpyrimidin-4-yl)amino]cyclohexyl}acetonitrile], the IC50 at JAK3 was 2 nM; at JAK2, 0.5 nM; against JAK1, 10 nM.
Take `COC[C@@H](C)Oc1nc(-c2cnn3ccccc23)nc(N[C@@H]2CCCN(c3cnc(C#N)cn3)C2)c1F` [Example 91, 5-[(3R)-3-({5-Fluoro-6-[(1R)-2-methoxy-1-methylethoxy]-2-pyrazolo[1,5-a]pyridin-3-ylpyrimidin-4-yl}amino)piperidin-1-yl]pyrazine-2-carbonitrile]: the IC50 was determined as 5 nM against JAK3, 2 nM against JAK2 and 114 nM on JAK1.
For `Cc1cc(-c2nc(-c3cnn4ccccc34)nc(O[C@@H]3CCCN(C(=O)CO)C3)c2F)ccn1` [Example 71, 2-((3R)-3-{[5-Fluoro-6-(2-methylpyridin-4-yl)-2-pyrazolo[1,5-a]pyridin-3-ylpyrimidin-4-yl]oxy}piperidin-1-yl)-2-oxoethanol], in that order: 26 nM, 2 nM and 35 nM.
For `Cc1cc(-c2nc(-c3cnn4ccccc34)nc(N[C@@H]3CCCN(C(=O)CC#N)C3)c2F)ccn1` [Example 20, 3-((3R)-3-{[5-fluoro-6-(2-methylpyridin-4-yl)-2-pyrazolo[1,5-a]pyridin-3-ylpyrimidin-4-yl]amino}piperidin-1-yl)-3-oxopropanenitrile], in that order: 1 nM, 0.5 nM and 1 nM.
For the molecule `N#Cc1nc(-c2cnn3ccccc23)nc(N[C@@H]2CCCN(C(=O)CO)C2)c1F` [Example 47, 5-Fluoro-6-{[(3R)-1-glycoloylpiperidin-3-yl]amino}-2-pyrazolo[1,5-a]pyridin-3-ylpyrimidine-4-carbonitrile], the IC50 came out at 12 nM at JAK3, 4 nM on JAK2 and 10 nM against JAK1.
For `CCCCOc1nc(-c2cnn3ccccc23)nc(N[C@@H]2CCCN(C(=O)CC#N)C2)c1F` [Example 15, 3-{(3R)-3-[(6-butoxy-5-fluoro-2-pyrazolo[1,5-a]pyridin-3-ylpyrimidin-4-yl)amino]piperidin-1-yl}-3-oxopropanenitrile], in that order: 2 nM, 1 nM and 13 nM.
For `Cc1cc(-c2nc(-c3cnn4ccccc34)nc(N[C@@H]3CCCN(C(=O)CO)C3)c2F)cc(C)n1` [Example 86, 2-((3R)-3-{[6-(2,6-Dimethylpyridin-4-yl)-5-fluoro-2-pyrazolo[1,5-a]pyridin-3-ylpyrimidin-4-yl]amino}piperidin-1-yl)-2-oxoethanol], in that order: 1 nM, 3 nM and 1 nM.
For `O=C(CO)N1CCC[C@@H](Nc2nc(-c3cnn4ccccc34)nc(N3CCC(CO)CC3)c2F)C1` [Example 23, 2-[(3R)-3-({5-Fluoro-6-[4-(hydroxymethyl)piperidin-1-yl]-2-pyrazolo[1,5-a]pyridin-3-ylpyrimidin-4-yl}amino)piperidin-1-yl]-2-oxoethanol], in that order: 5 nM, 1 nM and 8 nM.
On to “[Trans-4-({6-[2-(dimethylamino)ethoxy]-5-fluoro-2-pyrazolo[1,5-a]pyridin-3-ylpyrimidin-4-yl}amino)cyclohexyl]acetonitrile [Example 10]”, for which the IC50 against JAK3 was found to be 0.7 nM; against JAK2, 0.5 nM; against JAK1, 32 nM.
As to `CC(C)(O)Cn1cc(-c2nc(-c3cnn4ccccc34)nc(N[C@@H]3CCCN(C(=O)CO)C3)c2F)cn1` [Example 33, 1-[4-(5-Fluoro-6-{[(3R)-1-glycoloylpiperidin-3-yl]amino}-2-pyrazolo[1,5-a]pyridin-3-ylpyrimidin-4-yl)-1H-pyrazol-1-yl]-2-methylpropan-2-ol], the half-inhibitory concentration (IC50) against JAK3 came out at 2 nM; at JAK2, 0.6 nM; against JAK1 it was 6 nM.
For the molecule `CCOC(=O)C1(C)CCN(c2nc(-c3cnn4ccccc34)nc(N[C@@H]3CCCN(C(=O)CO)C3)c2F)CC1` [Example 28, Ethyl 1-(5-fluoro-6-{[(3R)-1-glycoloylpiperidin-3-yl]amino}-2-pyrazolo[1,5-a]pyridin-3-ylpyrimidin-4-yl)-4-methylpiperidine-4-carboxylate], the values for the half-inhibitory concentration (IC50) at JAK3, at JAK2 and against JAK1 were 3 nM, 0.8 nM and 5 nM, respectively.
Consider “3-{(3R)-3-[(6-Methoxy-2-pyrazolo[1,5-a]pyridin-3-ylpyrimidin-4-yl)amino]piperidin-1-yl}-3-oxopropanenitrile [Example 95]”, for which the IC50 against JAK3 stood at 7 nM; against JAK2, 3 nM; at JAK1, 3 nM.
In the case of `O=C(CO)N1CCC[C@@H](Nc2nc(-c3cnn4ccccc34)nc(O)c2F)C1` [Example 43, 5-Fluoro-6-{[(3R)-1-glycoloylpiperidin-3-yl]amino}-2-pyrazolo[1,5-a]pyridin-3-ylpyrimidin-4-ol], the values for the IC50 against JAK3, on JAK2 and against JAK1 were 1 nM, 0.7 nM and 4 nM, respectively.
`N#CC[C@H]1CC[C@H](Nc2nc(-c3cnn4ccccc34)nc(OCCO)c2F)CC1` [Example 5, (Trans-4-{[5-fluoro-6-(2-hydroxyethoxy)-2-pyrazolo[1,5-a]pyridin-3-ylpyrimidin-4-yl]amino}cyclohexyl)acetonitrile]: the results for the half-inhibitory concentration (IC50) at JAK3, on JAK2 and on JAK1 were 2 nM, 0.5 nM and 9 nM, respectively.
For `O=C(COc1nc(-c2cnn3ccccc23)nc(N[C@@H]2CCCN(C(=O)CO)C2)c1F)OCc1ccccc1` [Example 44, Benzyl[(5-fluoro-6-{[(3R)-1-glycoloylpiperidin-3-yl]amino}-2-pyrazolo[1,5-a]pyridin-3-ylpyrimidin-4-yl)oxy]acetate], in that order: 140 nM, 74 nM and 970 nM.
For the molecule `COC[C@H](C)Oc1nc(-c2cnn3ccccc23)nc(N[C@@H]2CCCN(C(=O)CO)C2)c1F` [Example 58, 2-[(3R)-3-({5-Fluoro-6-[(1S)-2-methoxy-1-methylethoxy]-2-pyrazolo[1,5-a]pyridin-3-ylpyrimidin-4-yl}amino)piperidin-1-yl]-2-oxoethanol], the values for the IC50 against JAK3, against JAK2 and against JAK1 were 7 nM, 2 nM and 66 nM, respectively.
Consider `O=C(CO)N1CCC[C@@H](Nc2nc(-c3cnn4ccccc34)nc(-c3ccnc(CO)c3)c2F)C1` [Example 37, 2-[(3R)-3-({5-Fluoro-6-[2-(hydroxymethyl)pyridin-4-yl]-2-pyrazolo[1,5-a]pyridin-3-ylpyrimidin-4-yl}amino)piperidin-1-yl]-2-oxoethanol], for which the IC50 on JAK3 stood at 7 nM; at JAK2 it was 1 nM; against JAK1, 2 nM.
For `N#Cc1cnc(N2CCC[C@@H](Nc3cc(OCCO)nc(-c4cnn5ccccc45)n3)C2)cn1` [Example 104, 5-((3R)-3-{[6-(2-Hydroxyethoxy)-2-pyrazolo[1,5-a]pyridin-3-ylpyrimidin-4-yl]amino}piperidin-1-yl)pyrazine-2-carbonitrile], in that order: 1 nM, 3 nM and 4 nM.
For `COC[C@@H](C)Oc1nc(-c2cnn3ccccc23)nc(N[C@@H]2CCCN(C(=O)CO)C2)c1F` [Example 60, 2-[(3R)-3-({5-Fluoro-6-[(1R)-2-methoxy-1-methylethoxy]-2-pyrazolo[1,5-a]pyridin-3-ylpyrimidin-4-yl}amino)piperidin-1-yl]-2-oxoethanol], in that order: 16 nM, 7 nM and 110 nM.
For `N#CCC(=O)N1CCC[C@@H](Nc2nc(-c3cnn4ccccc34)nc(-c3ccc(CO)cc3)c2F)C1` [Example 17, 3-[(3R)-3-({5-Fluoro-6-[4-(hydroxymethyl)phenyl]-2-pyrazolo[1,5-a]pyridin-3-ylpyrimidin-4-yl}amino)piperidin-1-yl]-3-oxopropanenitrile], in that order: 1 nM, 0.6 nM and 2 nM.
On to “(5-{(3R)-3-[(5-fluoro-6-methoxy-2-pyrazolo[1,5-a]pyridin-3-ylpyrimidin-4-yl)amino]piperidin-1-yl}pyrazin-2-yl)methanol [Example 55]”, for which the results for the IC50 against JAK3, against JAK2 and on JAK1 were 33 nM, 12 nM and 170 nM, respectively.
As for `N#CCC(=O)N1CCC[C@@H](Nc2nc(-c3cnn4ccccc34)nc(-c3cncc(CO)c3)c2F)C1` [Example 89, 3-[(3R)-3-({5-Fluoro-6-[5-(hydroxymethyl)pyridin-3-yl]-2-pyrazolo[1,5-a]pyridin-3-ylpyrimidin-4-yl}amino)piperidin-1-yl]-3-oxopropanenitrile], the 50% inhibitory concentration (IC50) against JAK3 worked out at 3 nM; at JAK2, 1 nM; against JAK1, 5 nM.
Turning to `COc1nc(-c2cnn3ccccc23)nc(N[C@@H]2CCCN(C(=O)CO)C2)c1F` [Example 42, 2-{(3R)-3-[(5-Fluoro-6-methoxy-2-pyrazolo[1,5-a]pyridin-3-ylpyrimidin-4-yl)amino]piperidin-1-yl}-2-oxoethanol], the IC50 is 1 nM at JAK3, 1 nM at JAK2 and 13 nM on JAK1.
Turning to `Cc1ccc(-c2cc(N[C@@H]3CCCN(C(=O)CO)C3)nc(-c3cnn4ccccc34)n2)cn1` [Example 99, 2-((3R)-3-{[6-(6-Methylpyridin-3-yl)-2-pyrazolo[1,5-a]pyridin-3-ylpyrimidin-4-yl]amino}piperidin-1-yl)-2-oxoethanol], the results for the half-maximal inhibitory concentration (IC50) at JAK3, against JAK2 and against JAK1 were 7 nM, 9 nM and 2 nM, respectively.

For the origin of these results see patent US10759793B2, “2-(pyrazolopyridin-3-yl)pyrimidine derivatives as JAK inhibitors” (ALMIRALL, S.A., priority 2015, dated 2020).
